Measured values from patent publication US12084472B2 (Ardelyx, Inc., priority 2015, dated 2024).

Target: T1, human TGR5 (Homo sapiens, UniProt Q8TDU6)
T1 construct: expressed in transfected cells; host or cells: HEK293
T1 sequence (Q8TDU6 1-330): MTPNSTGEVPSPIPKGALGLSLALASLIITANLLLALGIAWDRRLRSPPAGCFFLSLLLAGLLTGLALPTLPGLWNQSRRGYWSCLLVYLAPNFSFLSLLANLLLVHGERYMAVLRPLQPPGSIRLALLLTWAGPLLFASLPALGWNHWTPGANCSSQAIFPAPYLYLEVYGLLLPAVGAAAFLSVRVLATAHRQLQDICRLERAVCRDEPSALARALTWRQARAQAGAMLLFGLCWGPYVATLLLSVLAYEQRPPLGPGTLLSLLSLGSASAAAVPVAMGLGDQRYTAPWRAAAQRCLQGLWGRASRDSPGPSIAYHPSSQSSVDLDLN
Test: Cell-based TGR5 assay (cAMP generation, HTRF)
Details: HEK293 cells stably transfected with human TGR5; cAMP by HTRF; 30 minutes at 37° C.; read-out: pEC50 Human TGR5 (converted)
Procedure, shortened: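 First, compounds in 3-fold serial dilution were placed in HBSS with 10 mM HEPES pH 7.4 and 0.5 mM IBMX. Next, human TGR5-expressing HEK293 cells were added and incubated 30 min at 37° C. Finally, cAMP was detected by HTRF and pEC50 derived by logistic fitting.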

EC50 [nM]	Compound
< 100	O=C(CC1CN(S(=O)(=O)c2ccc(Cl)c(COC3(c4cnccc4-c4ccccc4OC4CC4)CC3)c2)C1)NC[C@H](O)[C@@H](O)[C@H](O)[C@H](O)CO [Compound I-438, 2-{1-[4-chloro-3-({1-[4-(2-cyclopropoxyphenyl)pyridin-3-yl]cyclopropoxy}methyl)benzenesulfonyl]azetidin-3-yl}-N-[(2S,3R,4R,5R)-2,3,4,5,6-pentahydroxyhexyl]acetamide]
1260 to 10000	Cc1ccc(SCCCCC(=O)NC[C@H](O)[C@@H](O)[C@H](O)[C@H](O)CO)nc1COC1(c2cnccc2-c2ccccc2OC2CC2)CC1 [Compound I-657, 5-{[6-({1-[4-(2-cyclopropoxyphenyl)pyridin-3-yl]cyclopropoxy}methyl)-5-methylpyridin-2-yl]sulfanyl}-N-[(2S,3R,4R,5R)-2,3,4,5,6-pentahydroxyhexyl]pentanamide]
< 100	CN(C[C@H](O)[C@@H](O)[C@H](O)[C@H](O)CO)C(=O)CCSc1ccc(Cl)c(COC2(c3cnccc3-c3ccccc3OC3CC3)CC2)c1 [Compound I-677, 3-{[4-chloro-3-({1-[4-(2-cyclopropoxyphenyl)pyridin-3-yl]cyclopropoxy}methyl)phenyl]sulfanyl}-N-methyl-N-[(2S,3R,4R,5R)-2,3,4,5,6-pentahydroxyhexyl]propanamide]
1260 to 10000	CC(CCCC(=O)NCCN1CCN(C(=O)NC[C@H](O)[C@@H](O)[C@H](O)[C@H](O)CO)CC1)c1ccc(Cl)c(CN(C(=O)NC[C@H](O)[C@@H](O)[C@H](O)[C@H](O)CO)C2(c3cnccc3-c3ccccc3OC3CC3)CC2)c1 (stereo partly drawn) [Compound I-372, 4-[2-(5-{4-chloro-3-[(1-{l-[4-(2-cyclopropoxyphenyl)pyridin-3-yl]cyclopropyl}{[(2S,3R,4R,5R)-2,3,4,5,6-pentahydroxyhexyl]carbamoyl}amino)methyl]phenyl}hexanamido)ethyl]-N-[(2S,3R,4R,5R)-2,3,4,5,6-pentahydroxyhexyl]piperazine-1-carboxamide]
126 to 1000	O=C(COC1CN(S(=O)(=O)c2ccc(Cl)c(COC3(c4cnccc4-c4ccccc4OC4CC4)CC3)c2)C1)NC[C@H](O)[C@@H](O)[C@H](O)[C@H](O)CO [Compound I-454, 2-({1-[4-chloro-3-({1-[4-(2-cyclopropoxyphenyl)pyridin-3-yl]cyclopropoxy}methyl)benzenesulfonyl]azetidin-3-yl}oxy)-N-[(2S,3R,4R,5R)-2,3,4,5,6-pentahydroxyhexyl]acetamide]
126 to 1000	Cc1ccc(SCCCCN(C(=O)[C@@H](O)[C@@H](O)[C@H](O)[C@@H](O)CO)C2CCOCC2)cc1COC1(c2cnccc2-c2ccccc2OC2CC2)CC1 [Compound I-562, (2S,3S,4R,5S)-N-(4-{[3-({1-[4-(2-cyclopropoxyphenyl)pyridin-3-yl]cyclopropoxy}methyl)-4-methylphenyl]sulfanyl}butyl)-2,3,4,5,6-pentahydroxy-N-(oxan-4-yl)hexanamide]
< 100	COCCCN(C[C@H](O)[C@@H](O)[C@H](O)[C@H](O)CO)C(=O)CCCC(C)c1ccc(Cl)c(CNC2(c3cnccc3-c3ccccc3OC3CC3)CC2)c1 (stereo partly drawn) [Compound I-338, 5-{4-chloro-3-[({11-[4-(2-cyclopropoxyphenyl)pyridin-3-yl]cyclopropyl}amino)methyl]phenyl}-N-(3-methoxypropyl)-N-[(2S,3R,4R,5R)-2,3,4,5,6-pentahydroxyhexyl]hexanamide]
126 to 1000	CSc1ccccc1-c1ccncc1C1(OCc2cc(Cl)ccc2Cl)CC1 [Compound I-739, 3-(1-((2,5-dichlorobenzyl)oxy)cyclopropyl)-4-(2-(methylthio)phenyl)pyridine]
< 100	Cc1ccc(C(C)CCCC(=O)N2CCN(CC(=O)NC[C@H](O)[C@@H](O)[C@H](O)[C@H](O)CO)CC2)cc1CNC1(c2cnccc2-c2ccccc2OC2CC2)CC1 (stereo partly drawn) [Compound I-371, 2-[4-(5-{3-[({1-[4-(2-cyclopropoxyphenyl)pyridin-3-yl]cyclopropyl}amino)methyl]-4-methylphenyl}hexanoyl)piperazin-1-yl]-N-[(2S,3R,4R,5R)-2,3,4,5,6-pentahydroxyhexyl]acetamide]
126 to 1000	O=C([C@@H](O)[C@@H](O)[C@H](O)[C@@H](O)CO)N(CCCSc1ccc(Cl)c(COC2(c3cnccc3-c3ccccc3OC3CC3)CC2)c1)CCN1CCS(=O)(=O)CC1 [Compound I-521, (2S,3S,4R,5S)-N-(3-{[4-chloro-3-({1-[4-(2-cyclopropoxyphenyl)pyridin-3-yl]cyclopropoxy}methyl)phenyl]sulfanyl}propyl)-N-[2-(1,1-dioxo-1λ^6,4-thiomorpholin-4-yl)ethyl]-2,3,4,5,6-pentahydroxyhexanamide]
< 100	CS(=O)(=O)CCN(CCCCSc1ccc(Cl)c(CNC2(c3cnccc3-c3ccccc3OC3CC3)CC2)c1)C(=O)[C@@H](O)[C@@H](O)[C@H](O)[C@@H](O)CO [Compound I-584, (2S,3S,4R,5S)-N-[4-({4-chloro-3-[({-[4-(2-cyclopropoxyphenyl)pyridin-3-yl]cyclopropyl}amino)methyl]phenyl}sulfanyl)butyl]-2,3,4,5,6-pentahydroxy-N-(2-methanesulfonylethyl) hexanamide]
< 100	Clc1ccc(Cl)c(COC2(c3cnccc3-c3ccccc3OC3CC3)CCOC2)c1 (stereo not drawn) [Compound I-743, 4-(2-cyclopropoxyphenyl)-3-(3-((2,5-dichlorobenzyl)oxy)tetrahydrofuran-3-yl)pyridine]
< 100	Cc1ccc([C@@H](C)CCCC(=O)N(C)C[C@H](O)[C@@H](O)[C@H](O)[C@H](O)CO)cc1CNC1(c2cnccc2-c2ccccc2OC2CC2)CC1 (single isomer, unassigned) [Compound I-350]
< 100	Cc1ccc([C@H](C)CCCC(=O)N(CCS(C)(=O)=O)C[C@H](O)[C@@H](O)[C@H](O)[C@H](O)CO)cc1CNC1(c2cnccc2-c2ccccc2OC2CC2)CC1 (single isomer, unassigned) [Compound I-368]
< 100	COC[C@H](O)CN(C[C@H](O)[C@@H](O)[C@H](O)[C@H](O)CO)C(=O)CCCCc1cc(Cl)c(COC2(c3cnccc3-c3ccccc3OC3CC3)CC2)cc1Cl [Compound I-124, 5-[2,5-dichloro-4-({1-[4-(2-cyclopropoxyphenyl)pyridin-3-yl]cyclopropoxy}methyl)phenyl]-N-[(2R)-2-hydroxy-3-methoxypropyl]-N-[(2S,3R,4R,5R)-2,3,4,5,6-pentahydroxyhexyl]pentanamide]
< 100	O=C(CN1CCC(NC(=O)NCCCCSc2ccc(Cl)c(COC3(c4cnccc4-c4ccccc4OC4CC4)CC3)c2)CC1)NC[C@H](O)[C@@H](O)[C@H](O)[C@H](O)CO [Compound I-633, 2-(4-{[(4-{[4-chloro-3-({1-[4-(2-cyclopropoxyphenyl)pyridin-3-yl]cyclopropoxy}methyl)phenyl]sulfanyl}butyl)carbamoyl]amino}piperidin-1-yl)-N-[(2S,3R,4R,5R)-2,3,4,5,6-pentahydroxyhexyl]acetamide]
< 100	CC(=O)N(CCCCCSc1ccc(Cl)c(COC2(c3cnccc3-c3ccccc3OC3CC3)CC2)c1)C[C@H](O)[C@@H](O)[C@H](O)[C@H](O)CO [Compound I-695, N-(5-{[4-chloro-3-({1-[4-(2-cyclopropoxyphenyl)pyridin-3-yl]cyclopropoxy}methyl)phenyl]sulfanyl}pentyl)-N-[(2S,3R,4R,5R)-2,3,4,5,6-pentahydroxyhexyl]acetamide]
126 to 1000	CC(=O)N1C[C@@H]2C[C@H]1CN2S(=O)(=O)c1ccc(Cl)c(COC2(c3cnccc3-c3ccccc3OC3CC3)CC2)c1 [Compound I-780, 1-((1S,4S)-5-((4-chloro-3-((1-(4-(2-cyclopropoxyphenyl)pyridin-3-yl)cyclopropoxy)methyl)phenyl)sulfonyl)-2,5-diazabicyclo[2.2.1]heptan-2-yl)ethan-1-one]
< 100	CC(=O)N(CCCSc1ccc(Cl)c(COC2(c3cnccc3-c3ccccc3OC3CC3)CC2)c1)C[C@H](O)[C@@H](O)[C@H](O)[C@H](O)CO [Compound I-500, N-(3-{[4-chloro-3-({1-[4-(2-cyclopropoxyphenyl)pyridin-3-yl]cyclopropoxy}methyl)phenyl]sulfanyl}propyl)-N-[(2S,3R,4R,5R)-2,3,4,5,6-pentahydroxyhexyl]acetamide]
< 100	CCN(CCCCc1cc(Cl)c(COC2(c3cnccc3-c3ccccc3OC3CC3)CC2)cc1C)C(=O)NC[C@H](O)[C@@H](O)[C@H](O)[C@H](O)CO [Compound I-96, 1-(4-(5-chloro-4-((1-(4-(2-cyclopropoxyphenyl)pyridin-3-yl)cyclopropoxy)methyl)-2-methylphenyl)butyl)-1-ethyl-3-((2S,3R,4R,5R)-2,3,4,5,6-pentahydroxyhexyl)urea]
< 100	CS(=O)(=O)NCCN(CCCSc1ccc(Cl)c(COC2(c3cnccc3-c3ccccc3OC3CC3)CC2)c1)C(=O)[C@@H](O)[C@@H](O)[C@H](O)[C@@H](O)CO [Compound I-593, (2S,3S,4R,5S)-N-(3-{[4-chloro-3-({1-[4-(2-cyclopropoxyphenyl)pyridin-3-yl]cyclopropoxy}methyl)phenyl]sulfanyl}propyl)-2,3,4,5,6-pentahydroxy-N-(2-methanesulfonamidoethyl) hexanamide]
